Laboratory results published in patent US8178506B2, “Oligomeric compounds and compositions for use in modulation of small non-coding RNAs” (Regulus Therapeutics Inc., priority 2003, dated 2012).
In the oligonucleotide strings, read from the 5' end, every base follows the letter of its sugar. An asterisk marks phosphorothioate; unmarked linkages are phosphodiester. Other units and linkages are bracketed, terminal groups are in braces. A string of capitals states the bases alone. e = 2'-O-(2-methoxyethyl) (MOE); [5mC] = 5-methylcytosine

Key:
Assay type in all cases: cell-based, human
aP2 = aP2 mRNA expression in adipocytes (real-time PCR); conditions: for aP2 mRNA: Table 75
adipocytes = experiment: Triglyceride accumulation assay in adipocytes
PPARγ = PPARγ mRNA expression in adipocytes (real-time PCR)
Glut4 = Glut4 mRNA expression in adipocytes (real-time PCR)
HSL = HSL mRNA expression in adipocytes (real-time PCR)
[1] = Table 18, differentiating adipocytes, control = treatment with ISIS 342673
[2] = differentiating adipocytes transfected with oligomeric compound
[3] = differentiating adipocytes transfected with oligomeric compound, Table 75
[4] = Table 17, differentiating adipocytes, control = treatment with ISIS 342673

Row | Substance | AP2 mRNA (aP2; [1]) | aP2 mRNA (aP2; [2]) | TG (triglyceride accumulation) (adipocytes; [1]) | TG (triglyceride accumulation) (adipocytes; [3]) | PPAR gamma mRNA (PPARγ; [1]) | PPAR gamma mRNA (PPARγ; [3]) | GLUT4 mRNA (Glut4; [1]) | GLUT4 mRNA (Glut4; [3]) | HSL mRNA (HSL; [1]) | HSL mRNA (HSL; [3]) | AP2 mRNA (aP2; [2]) | TG (triglyceride accumulation) (adipocytes; [2]) | PPAR gamma mRNA (PPARγ; [2]) | GLUT4 mRNA (Glut4; [2]) | HSL mRNA (HSL; [2]) | AP2 mRNA (aP2; [4]) | TG (triglyceride accumulation) (adipocytes; [4]) | PPAR gamma mRNA (PPARγ; [4]) | GLUT4 mRNA (Glut4; [4]) | HSL mRNA (HSL; [4])
1 | 327912 (antisense eA*eA*e[5mC]*eT*eA*eT*eA*e[5mC]*eA*eA*eT*e[5mC]*eT*eA*e[5mC]*eT*eA*e[5mC]*e[5mC]*eT*e[5mC]*eA) [compound 327912] | 90.1 percentage of control | 101 percentage of untreated control (UTC) | 107.4 percentage of control | 112 percentage of untreated control (UTC) | 76.9 percentage of control | 78 percentage of untreated control (UTC) | 89.0 percentage of control | 79 percentage of untreated control (UTC) | 90.6 percentage of control | 95 percentage of untreated control (UTC) |  |  |  |  |  |  |  |  |  | 
2 | 328105 (antisense e[5mC]*e[5mC]*eT*e[5mC]*eA*eA*eT*eT*eA*eT*eT*eG*eG*eA*eA*eA*eT*e[5mC]*eA*e[5mC]*eA) [compound 328105] | 88.2 percentage of control | 102 percentage of untreated control (UTC) | 93.1 percentage of control | 82 percentage of untreated control (UTC) | 93.3 percentage of control | 85 percentage of untreated control (UTC) | 94.2 percentage of control | 75 percentage of untreated control (UTC) | 94.2 percentage of control | 95 percentage of untreated control (UTC) |  |  |  |  |  |  |  |  |  | 
3 | 328110 (antisense eG*eA*eT*eA*eA*eA*eG*e[5mC]*e[5mC]*eA*eA*eT*eA*eA*eA*e[5mC]*eT*eG*eT*e[5mC]*eA) [compound 328110] | 93.3 percentage of control | 89 percentage of untreated control (UTC) | 97.7 percentage of control | 96 percentage of untreated control (UTC) | 91.2 percentage of control | 80 percentage of untreated control (UTC) | 104.7 percentage of control | 77 percentage of untreated control (UTC) | 91.0 percentage of control | 84 percentage of untreated control (UTC) |  |  |  |  |  |  |  |  |  | 
4 | 328111 (antisense eT*e[5mC]*e[5mC]*eG*eA*eG*eT*e[5mC]*eG*eG*eA*eG*eG*eA*eG*eG*eA*eG*eG*eA*eA) [compound 328111] | 71.5 percentage of control | 79 percentage of untreated control (UTC) | 101.9 percentage of control | 65 percentage of untreated control (UTC) | 74.9 percentage of control | 65 percentage of untreated control (UTC) | 59.6 percentage of control | 50 percentage of untreated control (UTC) | 69.5 percentage of control | 77 percentage of untreated control (UTC) |  |  |  |  |  |  |  |  |  | 
5 | 328114 (antisense eA*eA*eT*e[5mC]*eT*e[5mC]*eA*eT*eT*eT*eT*e[5mC]*eA*eT*eA*e[5mC]*eT*eT*eG*e[5mC]*eA) [compound 328114] | 94.4 percentage of control |  | 117.3 percentage of control |  | 89.3 percentage of control |  | 114.9 percentage of control |  | 93.3 percentage of control |  | 123 percentage of untreated control (UTC) | 110 percentage of untreated control (UTC) | 106 percentage of untreated control (UTC) | 116 percentage of untreated control (UTC) | 134 percentage of untreated control (UTC) |  |  |  |  | 
6 | 328115 (antisense eA*eG*eA*eA*eG*eG*eT*eG*eG*eG*eG*eA*eG*e[5mC]*eA*eG*e[5mC]*eG*eT*e[5mC]*eA) [compound 328115] | 80.0 percentage of control | 74 percentage of untreated control (UTC) | 108.7 percentage of control | 53 percentage of untreated control (UTC) | 95.8 percentage of control | 80 percentage of untreated control (UTC) | 132.0 percentage of control | 84 percentage of untreated control (UTC) | 89.0 percentage of control | 75 percentage of untreated control (UTC) |  |  |  |  |  |  |  |  |  | 
7 | 328117 (antisense eT*e[5mC]*e[5mC]*eA*e[5mC]*eA*eA*eA*eG*e[5mC]*eT*eG*eA*eA*e[5mC]*eA*eT*eG*eT*e[5mC]*eT) [compound 328117] |  | 28 percentage of untreated control (UTC) |  | 16 percentage of untreated control (UTC) |  | 42 percentage of untreated control (UTC) |  | 13 percentage of untreated control (UTC) |  | 18 percentage of untreated control (UTC) |  |  |  |  |  | 65.4 percentage of control | 55.0 percentage of control | 64.1 percentage of control | 68.1 percentage of control | 61.7 percentage of control
8 | 328119 (antisense eA*eA*eT*eA*eA*e[5mC]*eA*e[5mC]*eA*e[5mC]*eA*eT*e[5mC]*e[5mC]*eA*e[5mC]*eT*eT*eT*eA*eA) [compound 328119] |  | 119 percentage of untreated control (UTC) |  | 109 percentage of untreated control (UTC) |  | 102 percentage of untreated control (UTC) |  | 104 percentage of untreated control (UTC) |  | 101 percentage of untreated control (UTC) |  |  |  |  |  | 99.9 percentage of control | 90.2 percentage of control | 82.7 percentage of control | 95.2 percentage of control | 98.5 percentage of control
9 | 328123 (antisense eT*eT*eA*e[5mC]*eA*eG*eG*eT*eG*e[5mC]*eT*eG*e[5mC]*eA*eA*e[5mC]*eT*eG*eG*eA*eA) [compound 328123] |  | 119 percentage of untreated control (UTC) |  | 54 percentage of untreated control (UTC) |  | 88 percentage of untreated control (UTC) |  | 129 percentage of untreated control (UTC) |  | 91 percentage of untreated control (UTC) |  |  |  |  |  | 106.7 percentage of control | 120.8 percentage of control | 74.7 percentage of control | 162.4 percentage of control | 85.4 percentage of control
10 | 328125 (antisense eT*eA*eT*eG*eA*eA*eA*eT*eG*e[5mC]*e[5mC]*eA*eG*eA*eG*e[5mC]*eT*eG*e[5mC]*e[5mC]*eA) [compound 328125] |  | 75 percentage of untreated control (UTC) |  | 44 percentage of untreated control (UTC) |  | 68 percentage of untreated control (UTC) |  | 65 percentage of untreated control (UTC) |  | 48 percentage of untreated control (UTC) |  |  |  |  |  | 86.9 percentage of control | 81.7 percentage of control | 76.1 percentage of control | 99.5 percentage of control | 75.8 percentage of control
11 | 328129 (antisense eA*eG*e[5mC]*e[5mC]*eT*e[5mC]*e[5mC]*eT*eT*e[5mC]*eT*eT*e[5mC]*eT*e[5mC]*eG*eT*eA*e[5mC]*eT*eA) [compound 328129] |  | 54 percentage of untreated control (UTC) |  | 19 percentage of untreated control (UTC) |  | 59 percentage of untreated control (UTC) |  | 36 percentage of untreated control (UTC) |  | 34 percentage of untreated control (UTC) |  |  |  |  |  | 67.6 percentage of control | 53.8 percentage of control | 71.8 percentage of control | 60.0 percentage of control | 56.5 percentage of control
12 | 328133 (eT*eG*eA*eA*eG*eG*eT*eT*e[5mC]*eG*eG*eA*eG*eA*eT*eA*eG*eG*e[5mC]*eT*eA; anti-miR) [compound 328133] |  | 66 percentage of untreated control (UTC) |  | 43 percentage of untreated control (UTC) |  | 53 percentage of untreated control (UTC) |  | 59 percentage of untreated control (UTC) |  | 49 percentage of untreated control (UTC) |  |  |  |  |  | 69.5 percentage of control | 61.2 percentage of control | 63.8 percentage of control | 91.9 percentage of control | 63.0 percentage of control
13 | 328136 (eA*eA*e[5mC]*eT*eA*e[5mC]*eT*eT*e[5mC]*e[5mC]*eA*eG*eA*eG*e[5mC]*eA*eG*eG*eT*eG*eA; anti-miR) [compound 328136] |  | 57 percentage of untreated control (UTC) |  | 26 percentage of untreated control (UTC) |  | 54 percentage of untreated control (UTC) |  | 35 percentage of untreated control (UTC) |  | 37 percentage of untreated control (UTC) |  |  |  |  |  | 73.0 percentage of control | 47.0 percentage of control | 72.7 percentage of control | 66.7 percentage of control | 65.0 percentage of control
